Results: BindingDB's records for doi:10.1002/cbic.200400108 (Schering, 2005)
Where “and” joins values, the source holds several entries; their conditions need not be identical. Identical values can stand only once.

Tests used:
Assay in all cases: Inhibition Assay
[1] = molecular target: Cyclin-dependent kinase 2 (Homo sapiens, UniProt P24941); conditions: pH 8; 22 °C
Source text: (§1) Inhibition assay using CDK and selective kinases such as gsk3, EGFR, c-Kit, InsR and KDR.

[2] = molecular target: Epidermal growth factor receptor (Homo sapiens, UniProt P00533); conditions: pH 7; 22 °C
Sequence of Epidermal growth factor receptor (P00533 whole entry): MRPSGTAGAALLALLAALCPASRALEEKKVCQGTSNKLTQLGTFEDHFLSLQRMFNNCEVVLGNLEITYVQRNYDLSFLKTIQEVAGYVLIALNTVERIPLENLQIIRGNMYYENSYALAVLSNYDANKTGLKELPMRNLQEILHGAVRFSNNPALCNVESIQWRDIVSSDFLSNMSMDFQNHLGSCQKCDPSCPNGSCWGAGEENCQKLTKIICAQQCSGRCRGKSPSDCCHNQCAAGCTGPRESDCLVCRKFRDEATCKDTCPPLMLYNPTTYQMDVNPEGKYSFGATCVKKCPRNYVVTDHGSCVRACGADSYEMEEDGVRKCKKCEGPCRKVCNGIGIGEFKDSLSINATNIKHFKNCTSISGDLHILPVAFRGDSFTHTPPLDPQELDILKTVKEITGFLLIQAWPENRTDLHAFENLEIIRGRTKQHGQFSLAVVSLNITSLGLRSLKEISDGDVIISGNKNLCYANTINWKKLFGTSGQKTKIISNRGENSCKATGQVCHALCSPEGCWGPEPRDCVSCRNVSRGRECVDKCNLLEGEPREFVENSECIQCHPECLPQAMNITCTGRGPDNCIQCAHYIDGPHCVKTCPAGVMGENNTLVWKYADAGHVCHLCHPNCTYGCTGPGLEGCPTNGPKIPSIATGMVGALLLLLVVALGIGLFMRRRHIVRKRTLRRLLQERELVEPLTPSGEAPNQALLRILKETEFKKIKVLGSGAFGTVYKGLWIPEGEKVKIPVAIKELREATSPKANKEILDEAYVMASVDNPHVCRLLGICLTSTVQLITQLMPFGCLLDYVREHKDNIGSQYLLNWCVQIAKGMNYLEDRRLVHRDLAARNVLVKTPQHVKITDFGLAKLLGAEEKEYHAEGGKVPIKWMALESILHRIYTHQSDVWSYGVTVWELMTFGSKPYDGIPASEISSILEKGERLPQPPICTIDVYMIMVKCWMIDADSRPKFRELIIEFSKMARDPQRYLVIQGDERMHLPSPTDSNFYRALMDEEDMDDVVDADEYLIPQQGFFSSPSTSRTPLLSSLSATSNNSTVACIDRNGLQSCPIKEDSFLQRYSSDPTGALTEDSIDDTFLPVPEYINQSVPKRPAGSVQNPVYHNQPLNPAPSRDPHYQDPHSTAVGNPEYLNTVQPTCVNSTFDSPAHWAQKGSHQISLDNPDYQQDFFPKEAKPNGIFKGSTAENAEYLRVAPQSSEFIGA
Source text: as §1

Insulin receptor = Insulin receptor (Homo sapiens, UniProt P06213); conditions: pH 7.5; 22 °C
Sequence of Insulin receptor (P06213 28-758 limits assumed): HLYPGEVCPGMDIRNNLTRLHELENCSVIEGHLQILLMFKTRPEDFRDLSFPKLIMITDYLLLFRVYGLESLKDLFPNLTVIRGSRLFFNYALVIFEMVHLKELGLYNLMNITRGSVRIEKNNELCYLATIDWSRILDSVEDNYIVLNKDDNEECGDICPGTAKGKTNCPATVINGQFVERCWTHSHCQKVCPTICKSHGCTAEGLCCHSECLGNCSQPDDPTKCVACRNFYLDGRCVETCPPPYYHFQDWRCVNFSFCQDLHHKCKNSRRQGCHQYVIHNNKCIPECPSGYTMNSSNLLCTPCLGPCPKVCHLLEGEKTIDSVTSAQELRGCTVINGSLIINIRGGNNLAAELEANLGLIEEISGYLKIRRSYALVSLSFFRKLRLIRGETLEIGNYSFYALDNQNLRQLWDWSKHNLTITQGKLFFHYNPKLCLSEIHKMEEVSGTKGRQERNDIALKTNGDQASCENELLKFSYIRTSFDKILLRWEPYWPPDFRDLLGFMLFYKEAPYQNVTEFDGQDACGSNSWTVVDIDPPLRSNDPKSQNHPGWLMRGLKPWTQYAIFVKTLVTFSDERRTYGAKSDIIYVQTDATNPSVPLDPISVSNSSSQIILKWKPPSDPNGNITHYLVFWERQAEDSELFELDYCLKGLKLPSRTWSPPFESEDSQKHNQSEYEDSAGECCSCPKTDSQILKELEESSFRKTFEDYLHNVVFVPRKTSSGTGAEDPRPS
Sequence of Insulin receptor (P06213 763-1382 limits assumed): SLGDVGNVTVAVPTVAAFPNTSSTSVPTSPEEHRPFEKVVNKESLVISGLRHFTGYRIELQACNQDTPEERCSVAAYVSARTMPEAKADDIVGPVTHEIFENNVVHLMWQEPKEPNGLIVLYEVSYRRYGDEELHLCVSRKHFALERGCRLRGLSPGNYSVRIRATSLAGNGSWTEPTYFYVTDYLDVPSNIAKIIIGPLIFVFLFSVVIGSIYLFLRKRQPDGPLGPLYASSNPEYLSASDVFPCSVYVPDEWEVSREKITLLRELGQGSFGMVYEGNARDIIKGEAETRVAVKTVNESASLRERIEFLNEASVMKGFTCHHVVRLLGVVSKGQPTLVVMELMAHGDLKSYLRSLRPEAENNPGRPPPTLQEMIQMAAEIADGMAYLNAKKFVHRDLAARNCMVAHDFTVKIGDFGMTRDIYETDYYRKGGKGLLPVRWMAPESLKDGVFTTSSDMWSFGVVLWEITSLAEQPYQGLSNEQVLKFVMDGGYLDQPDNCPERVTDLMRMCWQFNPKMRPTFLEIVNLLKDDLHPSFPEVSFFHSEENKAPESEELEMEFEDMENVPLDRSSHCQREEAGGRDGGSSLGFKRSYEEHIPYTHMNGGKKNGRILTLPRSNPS
Source text: as §1

[3] = molecular target: Vascular endothelial growth factor receptor 2 (Homo sapiens, UniProt P35968); conditions: pH 7; 22 °C
Sequence of Vascular endothelial growth factor receptor 2 (P35968 whole entry): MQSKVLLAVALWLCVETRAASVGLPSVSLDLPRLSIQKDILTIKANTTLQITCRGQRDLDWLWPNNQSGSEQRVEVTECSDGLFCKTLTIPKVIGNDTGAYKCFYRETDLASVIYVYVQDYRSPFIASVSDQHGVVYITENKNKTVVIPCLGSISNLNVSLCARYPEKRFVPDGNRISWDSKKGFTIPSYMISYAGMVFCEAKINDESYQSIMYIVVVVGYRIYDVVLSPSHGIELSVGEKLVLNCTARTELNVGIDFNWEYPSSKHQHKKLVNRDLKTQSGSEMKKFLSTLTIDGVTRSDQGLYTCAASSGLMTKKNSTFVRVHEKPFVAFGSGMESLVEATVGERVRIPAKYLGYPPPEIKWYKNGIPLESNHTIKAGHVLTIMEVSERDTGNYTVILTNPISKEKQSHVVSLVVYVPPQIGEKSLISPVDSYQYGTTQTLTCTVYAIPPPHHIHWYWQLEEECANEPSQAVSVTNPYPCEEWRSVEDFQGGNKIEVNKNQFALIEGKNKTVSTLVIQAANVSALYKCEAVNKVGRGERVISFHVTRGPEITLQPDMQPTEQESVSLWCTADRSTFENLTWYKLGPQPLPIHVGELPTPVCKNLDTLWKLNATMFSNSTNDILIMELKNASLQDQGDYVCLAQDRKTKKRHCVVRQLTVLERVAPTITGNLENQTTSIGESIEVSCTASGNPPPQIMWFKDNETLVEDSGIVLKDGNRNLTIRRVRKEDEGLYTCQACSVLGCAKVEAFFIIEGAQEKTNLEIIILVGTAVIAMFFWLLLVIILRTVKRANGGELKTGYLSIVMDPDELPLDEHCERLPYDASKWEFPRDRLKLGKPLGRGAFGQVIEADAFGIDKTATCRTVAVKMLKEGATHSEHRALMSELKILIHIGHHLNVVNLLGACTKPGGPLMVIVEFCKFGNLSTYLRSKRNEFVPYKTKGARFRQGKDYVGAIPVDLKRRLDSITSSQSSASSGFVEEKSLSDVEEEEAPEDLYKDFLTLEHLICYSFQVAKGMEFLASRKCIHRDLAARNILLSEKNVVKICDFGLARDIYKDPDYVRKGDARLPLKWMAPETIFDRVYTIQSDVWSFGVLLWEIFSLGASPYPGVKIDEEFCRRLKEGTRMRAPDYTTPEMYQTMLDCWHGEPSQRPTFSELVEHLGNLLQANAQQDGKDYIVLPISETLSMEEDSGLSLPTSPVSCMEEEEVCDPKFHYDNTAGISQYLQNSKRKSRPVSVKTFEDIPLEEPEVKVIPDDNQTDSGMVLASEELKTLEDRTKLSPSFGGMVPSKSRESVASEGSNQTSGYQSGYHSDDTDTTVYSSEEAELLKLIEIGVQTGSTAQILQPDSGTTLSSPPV
Source text: as §1

Row | SMILES | IC50 [1] | IC50 [2] [µM] | IC50 (Insulin receptor) [µM] | IC50 [3] [µM]
1 | CN(C)S(=O)(=O)c1ccc2c(c1)/C(=C1/Nc3ccccc3/C1=N\OCCO[C@@H]1O[C@H](CO)[C@@H](O)[C@H](O)[C@H]1O)C(=O)N2 [Indirubin derivative, 36 (X=NO)] | 0.08 µM | – | – | –
2 | O=C(O)CCNS(=O)(=O)c1ccc2c(c1)C(=C1Nc3ccccc3C1=O)C(=O)N2 [Indirubin derivative, 34] | 1.5 µM | – | – | –
3 | O=C1Nc2ccc(S(=O)(=O)O)cc2C1=C1Nc2ccccc2C1=O [Indirubin derivative, 20] | – | > 10 | > 10 | > 10
4 | O=C1Nc2ccc(S(=O)(=O)NCCO)cc2C1=C1Nc2ccccc2C1=O [Indirubin derivative, 33] | 0.08 µM | – | – | –
5 | O=C1Nc2ccc(Br)cc2C1=C1Nc2ccccc2C1=O | – | > 10 | > 10 | > 10
6 | CN(C)CCN(C)S(=O)(=O)c1ccc2c(c1)/C(=C1/Nc3ccccc3/C1=N\OCCO[C@@H]1O[C@H](CO)[C@@H](O)[C@H](O)[C@H]1O)C(=O)N2 [Indirubin derivative, 25] | 0.09 µM | – | – | –
7 | CN(C)C1CCN(S(=O)(=O)c2ccc3c(c2)C(=C2Nc4ccccc4C2=O)C(=O)N3)CC1 [Indirubin derivative, 36 (X=O)] | 0.02 µM | – | – | –
8 | O=C1Nc2ccccc2/C1=C1/Nc2ccccc2C1=O [2-[(3Z)-2-oxo-2,3-dihydro-1H-indol-3-ylidene]-2,3-dihydro-1H-indol-3-one] | 2 µM | – | – | –

Other lines, results leading:

Row | IC50 [1] | IC50 [2] [µM] | IC50 (Insulin receptor) [µM] | IC50 [3] [µM] | SMILES
9 | – | > 10 | > 10 | > 10 | C=CCC1(O)C(C2C(=O)Nc3ccc(S(=O)(=O)N(C)CCN(C)C)cc32)=Nc2ccccc21 (stereo unspecified) [Indirubin derivative, 30b]
10 | 3 µM and > 10 µM | – | – | – | CN(C)S(=O)(=O)c1ccc2c(c1)C(C1=Nc3ccccc3C1(O)C(O)CO)C(=O)N2 (stereo unspecified) [Indirubin derivative, 31b]
11 | 0.04 µM | – | – | – | CN(C)S(=O)(=O)c1ccc2c(c1)C(=C1Nc3ccccc3C1=O)C(=O)N2 [Indirubin derivative, 8]
12 | 0.45 µM | – | – | – | CN(C[C@H](O)[C@@H](O)[C@H](O)[C@H](O)CO)S(=O)(=O)c1ccc2c(c1)C(=C1Nc3ccccc3C1=O)C(=O)N2 [Indirubin derivative, 35]
13 | 3 µM | – | – | – | CC1(O)C(C2C(=O)Nc3ccc(Br)cc32)=Nc2ccccc21 (stereo unspecified) [Indirubin derivative, 26]
14 | 1.6 µM | – | – | – | CC1(O)C(C2C(=O)Nc3ccc(S(=O)(=O)N4CCC(O)CC4)cc32)=Nc2ccccc21 (stereo unspecified) [Indirubin derivative, 37]
15 | 0.04 µM | – | – | – | CN(C)CCN(C)S(=O)(=O)c1ccc2c(c1)C(c1[nH]c3ccccc3c1N=O)C(=O)N2 (stereo unspecified) [Indirubin derivative, 23]
16 | 0.07 µM and 0.6 µM | – | – | – | CN(C)S(=O)(=O)c1ccc2c(c1)C(C1=Nc3ccccc3C1(C)O)C(=O)N2 (stereo unspecified) [Indirubin derivative, 27b]
17 | 0.01 µM | – | – | – | CN(C)CCN(C)S(=O)(=O)c1ccc2c(c1)C(=C1Nc3ccccc3C1=O)C(=O)N2 [Indirubin derivative, 22]
18 | – | > 10 | > 10 | > 10 | CN(C)CCN(C)S(=O)(=O)c1ccc2c(c1)C(C1=Nc3ccccc3C1(C)O)C(=O)N2 (stereo unspecified) [Indirubin derivative, 28b]
